What was measured:
AAK1 = molecular target: T1, AAK1 (Homo sapiens, UniProt Q2M2I8); assay: CETSA-MS, MDA-MB-231 cell lysates and intact cells; assay type: cell-based; details: present in both MDA-MB-231 cell lysates and intact cells
T1 construct: endogenous in cells; host or cells: MDA-MB-231
Procedure: (§1) Following treatment, cell lysates were thermally treated in a thermal gradient profile across a temperature range. Following the thermal shift, cell lysates were spun by centrifuge to pellet aggregate protein and the supernatant withdrawn. The supernatant was then denatured in buffer and heated to denature, reduce, and alkylate the supernatant proteins. Following heating and cooling to room temperature, cold acetone was added to the supernatant samples and proteins precipitated.
(§2) TNBC MDA-MB-231 cells were grown at 37° C. in 5% CO2 and suspended in warm media and split into 4 equal volumes. […] Cells were incubated and then pelleted. Following pelleting, the cells were washed, resuspended, and heated in a thermal gradient. Following heating, the samples were flash frozen and lysed in lysis buffer, agitated by vortex, and sonicated prior to centrifugation. The supernatant was collected and denaturation buffer added. Cold acetone was then added to the cell samples, and protein collected by centrifugation. Pellets were then washed twice with cold acetone and the washed pellets prior to labeling.
(§3) The intact cell protein samples and lysate protein samples were then digested and labeled for mass spectrometry analysis according to the manufacturer's recommended protocols. Digested and labeled protein samples were analyzed by mass spectrometry proteomic analysis and the resulting protein targets were analyzed and plotted.

BMP2K = molecular target: T2, BMP2K (Homo sapiens, UniProt Q9NSY1); assay: CETSA-MS, MDA-MB-231 cell lysates and intact cells; assay type: cell-based; details: present in both MDA-MB-231 cell lysates and intact cells
T2 construct: endogenous in cells; host or cells: MDA-MB-231
Procedure: as §1, §2, §3

CHEK1 = molecular target: T3, CHEK1 (Homo sapiens, UniProt O14757); assay: CETSA-MS, MDA-MB-231 cell lysates and intact cells; assay type: cell-based; details: present in both MDA-MB-231 cell lysates and intact cells
T3 construct: endogenous in cells; host or cells: MDA-MB-231
T3 sequence (O14757 1-476): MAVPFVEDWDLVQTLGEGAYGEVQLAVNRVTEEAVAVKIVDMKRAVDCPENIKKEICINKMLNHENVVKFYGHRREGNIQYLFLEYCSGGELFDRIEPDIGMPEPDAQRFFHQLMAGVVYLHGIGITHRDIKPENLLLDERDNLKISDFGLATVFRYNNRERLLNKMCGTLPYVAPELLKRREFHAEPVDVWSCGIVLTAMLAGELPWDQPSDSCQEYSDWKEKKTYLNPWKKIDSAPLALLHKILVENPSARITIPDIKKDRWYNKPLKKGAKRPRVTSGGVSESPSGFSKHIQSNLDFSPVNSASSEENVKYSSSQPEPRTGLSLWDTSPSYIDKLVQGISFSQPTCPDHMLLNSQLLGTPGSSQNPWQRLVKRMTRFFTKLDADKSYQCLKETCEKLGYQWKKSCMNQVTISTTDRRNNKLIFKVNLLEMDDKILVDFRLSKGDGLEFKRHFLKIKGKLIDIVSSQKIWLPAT
Procedure: as §1, §2, §3

GSK3A = molecular target: T4, GSK3A (Homo sapiens, UniProt P49840); assay: CETSA-MS, MDA-MB-231 cell lysates and intact cells; assay type: cell-based; details: present in both MDA-MB-231 cell lysates and intact cells
T4 construct: endogenous in cells; host or cells: MDA-MB-231
Procedure: as §1, §2, §3

GSK3B = molecular target: T5, GSK3B (Homo sapiens, UniProt P49841); assay: CETSA-MS, MDA-MB-231 cell lysates and intact cells; assay type: cell-based; details: present in both MDA-MB-231 cell lysates and intact cells
T5 construct: endogenous in cells; host or cells: MDA-MB-231
Procedure: as §1, §2, §3

Hs578T spheroids = assay: Spheroid imaging (Hoechst, F-actin); assay type: cell-based; details: 5 μM, compared to DMSO, Comparator 1 and Comparator 2 (FIG. 18)
Cyclin D1 = assay: Western blot, MDA-MB-231 cells, 24 hours; assay type: cell-based; details: 2.5, 5, 10 μM, versus Comparator 1, 2 and 4
PyMT cells [1] = assay: MTT cell viability; assay type: cell-based, mouse; details: 24, 48 and 72 hours; Compound 1 2.5, 5, 10 μM; Comparator 1 5 μM
PyMT cells [2] = assay: Annexin V/PI staining, apoptotic cells, 48 hours; assay type: cell-based, mouse; details: compared to Comparator 1 (5 μM) and Comparator 3 (1 μM)
PyMT cells [3] = assay: Growth and recovery, 6 days treatment and 4 days recovery, cell counts; assay type: cell-based, mouse; details: 6 days treatment, counted on days 0, 3, 6, 10
Excerpt: Following 6 days of treatment, the drug treatments were stopped and the cells allowed to recover for 4 days. Cell numbers were counted on days 0, 3, 6, and 10, and the results plotted.

CDK4/cyclin D1 = CDK4/cyclin D1 (Homo sapiens, UniProt P11802); assay: CDK4/cyclin D1 In Vitro Kd, kinase binding assay (qPCR)
Procedure: Kinase-tagged T7 phage strains were prepared in an E. coli host derived from the BL21 strain. E. coli were grown to log-phase and infected with T7 phage and incubated with shaking at 32° C. until lysis. […] The remaining kinases were produced in HEK-293 cells and subsequently tagged with DNA for qPCR detection. […] The liganded beads were blocked with excess biotin and washed with blocking buffer (SeaBlock (Pierce), 1% BSA, 0.05% Tween 20, 1 mM DTT) to remove unbound ligand and to reduce non-specific binding. […] Test compounds were prepared as 111× stocks in 100% DMSO. Kds were determined using an 11-point 3-fold compound dilution series with three DMSO control points. […] The compounds were then diluted directly into the assays such that the final concentration of DMSO was 0.9%. All reactions performed in polypropylene 384-well plate. Each was a final volume of 0.02 ml. […] The kinase concentration in the eluates was measured by qPCR. […] Curves were fitted using a non-linear least square fit with the Levenberg-Marquardt algorithm.

NUAK1 = molecular target: T6, NUAK1 (Homo sapiens, UniProt O60285); assay: NUAK1 CETSA; assay type: cell-based; set-up: endogenous in cells; host or cells: MDA-MB-231 (lysates and intact cells)
T6 sequence (O60285 1-661): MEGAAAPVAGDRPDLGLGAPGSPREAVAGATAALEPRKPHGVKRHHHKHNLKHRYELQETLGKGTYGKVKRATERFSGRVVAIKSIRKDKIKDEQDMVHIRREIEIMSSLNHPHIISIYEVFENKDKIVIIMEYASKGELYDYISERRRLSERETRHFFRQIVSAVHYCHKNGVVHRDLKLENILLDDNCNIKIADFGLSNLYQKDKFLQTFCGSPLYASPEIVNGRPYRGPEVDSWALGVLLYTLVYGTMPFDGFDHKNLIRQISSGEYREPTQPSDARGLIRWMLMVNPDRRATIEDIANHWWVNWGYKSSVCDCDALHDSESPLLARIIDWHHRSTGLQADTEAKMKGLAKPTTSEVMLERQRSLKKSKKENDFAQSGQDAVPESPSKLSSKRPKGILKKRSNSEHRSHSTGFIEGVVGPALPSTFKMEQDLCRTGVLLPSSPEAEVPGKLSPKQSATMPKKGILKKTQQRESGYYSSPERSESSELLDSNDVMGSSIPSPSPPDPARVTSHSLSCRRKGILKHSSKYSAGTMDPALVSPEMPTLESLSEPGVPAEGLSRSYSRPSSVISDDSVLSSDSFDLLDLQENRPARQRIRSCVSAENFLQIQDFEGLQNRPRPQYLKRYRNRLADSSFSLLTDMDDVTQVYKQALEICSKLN
Procedure: as §1
as §2, with “Pellets were then washed twice with cold acetone and the washed pellets prior to labeling.” left out
as §3

CDK4/cyclin D1, sequence (P11802 whole entry): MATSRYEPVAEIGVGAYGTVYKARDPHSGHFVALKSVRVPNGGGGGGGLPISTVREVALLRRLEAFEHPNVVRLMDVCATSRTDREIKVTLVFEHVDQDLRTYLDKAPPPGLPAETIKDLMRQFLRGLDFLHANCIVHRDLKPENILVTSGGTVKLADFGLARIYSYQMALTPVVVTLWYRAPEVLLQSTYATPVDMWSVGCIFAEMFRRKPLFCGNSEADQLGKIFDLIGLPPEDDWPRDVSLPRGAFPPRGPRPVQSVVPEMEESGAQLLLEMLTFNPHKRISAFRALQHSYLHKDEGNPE
CDK4/cyclin D1, sequence (P24385 whole entry partner): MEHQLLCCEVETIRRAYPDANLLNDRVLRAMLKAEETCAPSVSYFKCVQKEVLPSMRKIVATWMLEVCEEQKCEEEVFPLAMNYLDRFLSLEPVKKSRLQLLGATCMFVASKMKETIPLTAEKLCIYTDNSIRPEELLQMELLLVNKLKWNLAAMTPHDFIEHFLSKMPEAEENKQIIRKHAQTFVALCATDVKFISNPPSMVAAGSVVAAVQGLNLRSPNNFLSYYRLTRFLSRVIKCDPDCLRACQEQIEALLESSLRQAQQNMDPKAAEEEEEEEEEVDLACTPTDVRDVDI
T2 sequence (Q9NSY1 whole entry): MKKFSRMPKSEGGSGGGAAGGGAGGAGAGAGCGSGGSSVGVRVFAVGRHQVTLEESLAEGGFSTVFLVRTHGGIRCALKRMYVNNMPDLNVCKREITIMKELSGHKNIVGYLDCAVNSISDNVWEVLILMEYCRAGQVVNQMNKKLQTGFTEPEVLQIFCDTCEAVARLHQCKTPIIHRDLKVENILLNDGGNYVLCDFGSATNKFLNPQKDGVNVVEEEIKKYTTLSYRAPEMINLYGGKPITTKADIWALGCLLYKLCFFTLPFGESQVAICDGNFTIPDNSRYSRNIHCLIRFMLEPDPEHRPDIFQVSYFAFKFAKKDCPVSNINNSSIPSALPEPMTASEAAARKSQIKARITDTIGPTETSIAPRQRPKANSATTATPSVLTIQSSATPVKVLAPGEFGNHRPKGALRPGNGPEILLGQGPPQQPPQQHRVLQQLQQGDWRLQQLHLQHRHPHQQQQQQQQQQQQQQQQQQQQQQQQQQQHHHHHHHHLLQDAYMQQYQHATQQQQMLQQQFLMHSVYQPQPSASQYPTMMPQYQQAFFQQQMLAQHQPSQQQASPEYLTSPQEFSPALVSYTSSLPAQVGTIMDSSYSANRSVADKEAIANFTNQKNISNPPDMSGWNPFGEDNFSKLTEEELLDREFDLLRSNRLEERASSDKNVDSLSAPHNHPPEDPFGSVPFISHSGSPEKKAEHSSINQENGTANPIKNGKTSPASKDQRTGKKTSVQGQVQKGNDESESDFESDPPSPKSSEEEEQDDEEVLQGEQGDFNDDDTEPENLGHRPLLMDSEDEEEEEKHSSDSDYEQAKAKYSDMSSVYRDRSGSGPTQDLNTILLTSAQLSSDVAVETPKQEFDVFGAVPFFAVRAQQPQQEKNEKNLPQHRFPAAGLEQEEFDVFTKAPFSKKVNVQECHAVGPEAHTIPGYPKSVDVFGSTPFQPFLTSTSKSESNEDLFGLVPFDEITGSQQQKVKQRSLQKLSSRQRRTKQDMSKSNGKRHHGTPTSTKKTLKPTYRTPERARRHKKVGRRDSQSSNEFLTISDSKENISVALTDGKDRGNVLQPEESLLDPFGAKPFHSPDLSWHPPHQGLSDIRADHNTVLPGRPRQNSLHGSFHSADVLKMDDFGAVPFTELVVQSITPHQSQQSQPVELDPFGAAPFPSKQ
T1 sequence (Q2M2I8 whole entry): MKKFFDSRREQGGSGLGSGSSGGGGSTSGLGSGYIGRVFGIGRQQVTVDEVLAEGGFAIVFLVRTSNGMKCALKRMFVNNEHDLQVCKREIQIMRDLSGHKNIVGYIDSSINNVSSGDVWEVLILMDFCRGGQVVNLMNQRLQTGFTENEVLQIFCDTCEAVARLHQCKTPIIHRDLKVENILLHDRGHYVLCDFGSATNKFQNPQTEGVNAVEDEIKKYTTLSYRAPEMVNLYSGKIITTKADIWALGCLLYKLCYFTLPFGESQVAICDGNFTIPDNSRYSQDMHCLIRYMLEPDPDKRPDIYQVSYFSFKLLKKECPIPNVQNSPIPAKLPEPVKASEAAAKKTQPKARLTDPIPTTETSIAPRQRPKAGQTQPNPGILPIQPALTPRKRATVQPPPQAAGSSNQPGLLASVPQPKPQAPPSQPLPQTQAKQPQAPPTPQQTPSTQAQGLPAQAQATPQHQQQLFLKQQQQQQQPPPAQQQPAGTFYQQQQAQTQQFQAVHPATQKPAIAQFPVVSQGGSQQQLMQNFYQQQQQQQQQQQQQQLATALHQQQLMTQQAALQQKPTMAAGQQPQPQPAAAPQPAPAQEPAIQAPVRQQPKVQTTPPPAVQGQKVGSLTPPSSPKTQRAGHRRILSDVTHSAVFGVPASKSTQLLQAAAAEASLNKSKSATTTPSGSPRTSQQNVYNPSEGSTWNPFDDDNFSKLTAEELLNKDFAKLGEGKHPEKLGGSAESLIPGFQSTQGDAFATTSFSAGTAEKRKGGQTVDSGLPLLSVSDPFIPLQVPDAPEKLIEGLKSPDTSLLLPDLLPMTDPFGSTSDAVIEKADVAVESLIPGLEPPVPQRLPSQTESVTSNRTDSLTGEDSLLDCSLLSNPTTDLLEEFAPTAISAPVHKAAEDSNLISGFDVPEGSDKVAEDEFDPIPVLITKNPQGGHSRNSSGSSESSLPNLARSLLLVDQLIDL
T4 sequence (P49840 whole entry): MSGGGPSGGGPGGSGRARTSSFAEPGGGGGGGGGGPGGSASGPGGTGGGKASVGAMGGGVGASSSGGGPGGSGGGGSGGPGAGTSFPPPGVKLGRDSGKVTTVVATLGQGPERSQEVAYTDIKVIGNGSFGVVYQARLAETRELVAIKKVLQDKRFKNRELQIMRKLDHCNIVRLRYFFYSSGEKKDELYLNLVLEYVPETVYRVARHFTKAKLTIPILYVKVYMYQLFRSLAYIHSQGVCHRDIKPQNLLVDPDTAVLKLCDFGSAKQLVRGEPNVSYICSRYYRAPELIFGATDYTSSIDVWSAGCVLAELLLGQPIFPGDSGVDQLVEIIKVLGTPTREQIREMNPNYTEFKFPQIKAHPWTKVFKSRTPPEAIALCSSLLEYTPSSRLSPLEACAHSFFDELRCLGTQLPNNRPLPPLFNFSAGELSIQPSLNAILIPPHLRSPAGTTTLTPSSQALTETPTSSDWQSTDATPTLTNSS
T5 sequence (P49841 whole entry): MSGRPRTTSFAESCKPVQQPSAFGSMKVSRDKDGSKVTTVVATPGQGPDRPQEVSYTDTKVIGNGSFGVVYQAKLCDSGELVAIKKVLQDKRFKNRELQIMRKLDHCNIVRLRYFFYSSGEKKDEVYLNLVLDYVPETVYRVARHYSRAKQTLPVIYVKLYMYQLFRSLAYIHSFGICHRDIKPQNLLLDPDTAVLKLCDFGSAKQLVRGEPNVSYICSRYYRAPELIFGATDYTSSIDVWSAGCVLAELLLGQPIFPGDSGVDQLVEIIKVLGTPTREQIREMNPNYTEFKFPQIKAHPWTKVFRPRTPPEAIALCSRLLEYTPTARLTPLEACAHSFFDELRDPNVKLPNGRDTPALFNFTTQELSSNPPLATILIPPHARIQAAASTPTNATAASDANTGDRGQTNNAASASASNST

SMILES: CN1CCN(c2ccc(Nc3ncc4cc(C#N)c(=O)n(C5CCCC5)c4n3)cc2)CC1 [Compound 1, 8-cyclopentyl-2-((4-(4-methylpiperazin-1-yl)phenyl)amino)-7-oxo-7,8-dihydropyrido[2,3-d]pyrimidine-6-carbonitrile]
- Group (CETSA-MS thermal shift) (AAK1): Stabilization
- Group (CETSA-MS thermal shift) (BMP2K): Stabilization
- Group (CETSA-MS thermal shift) (CHEK1): Destabilization
- Group (CETSA-MS thermal shift) (GSK3A): Stabilization
- Group (CETSA-MS thermal shift) (GSK3B): Stabilization
- spheroid size (Hs578T spheroids): small decrease in spheroid size
- Cyclin D1 levels (Cyclin D1): decreasing
- cell death (MTT cell viability) (PyMT cells [1]): increased cell death relative to DMSO
- number of apoptotic cells (Annexin V/PI) (PyMT cells [2]): increased numbers of apoptotic cells
- PyMT cell numbers, treatment and recovery phase (PyMT cells [3]): small decrease in cell number at day 3 that then increased throughout the rest of the experiment
- Kd (CDK4/cyclin D1): 0.18 nM
- CETSA (NUAK1): NEG

Reference: patent publication US20260183295A1, “METHODS AND COMPOSITIONS FOR TREATING CANCER” (Onconova Therapeutics, Inc., priority 2022, published 2026)
